Like-named read-outs stand apart in the source and are kept apart here.
What was measured:
HCV NS5B = molecular target: T1, HCV NS5B (Hepatitis C virus genotype 1b, UniProt Q9WMX2); assay: HCV NS5B RdRp enzyme assay (standard or modified); format: biochemical; settings: HCV NS5B RdRp enzyme, genotype 1b; read-out: IC50
T1 construct: The protein was expressed with an 18 amino acid C-terminal truncation to enhance the solubility; made in house; host or cells: E. coli BL21(DE3)
Experimental: HCV NS5B RdRp cloning, expression, and purification. The cDNA encoding the NS5B protein of HCV, genotype 1b, was cloned into the pET21a expression vector. The protein was expressed with an 18 amino acid C-terminal truncation to enhance the solubility. The E. coli competent cell line BL21(DE3) was used for expression of the protein. Cultures were grown at 37 °C for ~ 4 hours until the cultures reached an optical density of 2.0 at 600 nm. The cultures were cooled to 20 °C and induced with I mM IPTG. Fresh ampicillin was added to a final concentration of 50 µg/ml and the cells were grown overnight at 20 °C.
Cell pellets (3L) were lysed for purification to yield 15-24 mgs of purified NS5B. The lysis buffer consisted of 20 mM Tris-HCl, pH 7.4, 500 mM NaCl, 0.5% triton X-100, 1 mM DTT, 1mM EDTA, 20% glycerol, 0.5 mg/ml lysozyme, 10 mM MgCl2, 15 ug/ml deoxyribonuclease I, and Complete TM protease inhibitor tablets (Roche). After addition of the lysis buffer, frozen cell pellets were resuspended using a tissue homogenizer. To reduce the viscosity of the sample, aliquots of the lysate were sonicated on ice using a microtip attached to a Branson sonicator. The sonicated lysate was centrifuged at 100,000 x g for 1hr at 4 °C and filtered through a 0.2 µm filter unit (Corning).
The protein was purified using three sequential chromatography steps: Heparin sepharose CL-6B, polyU sepharose 4B, and Hitrap SP sepharose (Pharmacia). The chromatography buffers were identical to the lysis buffer but contained no lysozyme, deoxyribonuclease I, MgCl2 or protease inhibitor and the NaCl concentration of the buffer was adjusted according to the requirements for charging the protein onto the column. Each column was eluted with a NaCl gradient which varied in length from 5-50 column volumes depending on the column type. After the final chromatography step, the resulting purity of the enzyme is >90% based on SDS-PAGE analysis. The enzyme was aliquoted and stored at -80 °C.
Standard HCV NS5B RdRp enzyme assay. HCV RdRp genotype 1b assays were run in a final volume of 60 µl in 96 well plates (Costar 3912). The assay buffer is composed of 20 mM Hepes, pH 7.5, 2.5 mM KCI, 2.5 mM MgCl2, 1 mM DTT, 1.6 U RNAse inhibitor (Promega N2515), 0.1 mg/ml BSA (Promega R3961), and 2 % glycerol. All compounds were serially diluted (3-fold) in DMSO and diluted further in water such that the final concentration of DMSO in the assay was 2%. HCV RdRp genotype Ib enzyme was used at a final concentration of 28 nM. A polyA template was used at.6 nM, and a biotinylated oligo-dT12 primer was used at 180 nM final concentration. Template was obtained commercially (Amersham 27-4110). Biotinylated primer was prepared by Sigma Genosys. 3H-UTP was used at 0.6 µCi (0.29 µM total UTP). Reactions were initiated by the addition of enzyme, incubated at 30 °C for 60 min, and stopped by adding 25 µl of 50 mM EDTA containing SPA beads (4 µg/µl, Amersham RPNQ 0007). Plates were read on a Packard Top Count NXT after > 1hr incubation at room temperature.
Modified HCV NS5B RdRp enzyme assay. A modified enzyme assay was performed essentially as described for the standard enzyme assay except for the following: The biotinylated oligo dT12 primer was precaptured on streptavidin-coated SPA beads by mixing primer and beads in assay buffer and incubating at room temperature for one hour. Unbound primer was removed after centrifugation. The primer-bound beads were resuspended in 20 mM Hepes buffer, pH 7.5 and used in the assay at final concentrations of 20 nM primer and 0.67 µg/µl beads. Order of addition in the assay: enzyme (14 nM) was added to diluted compound followed by the addition of a mixture of template (0.2 nM), 3H-UTP (0.6 µCi, 0.29 µM), and primer-bound beads, to initiate the reaction; concentrations given are final. Reactions were allowed to proceed for 4 hours at 30° C.
IC50 values for compounds were determined using seven different [I]. […]

HCV replicon = HCV replicon assay (FRET or luciferase readout); format: cell-based; settings: Hepatitis C virus
Text: FRET Assay Preparation. To perform the HCV FRET screening assay, 96-well cell culture plates were used. The FRET peptide (Anaspec, Inc.) (Taliani et al., Anal. Biochem. 1996, 240, 60-67) contains a fluorescence donor, EDANS, near one end of the peptide and an acceptor, DABCYL, near the other end. The fluorescence of the peptide is quenched by […] resonance energy transfer (RET) between the donor and the acceptor, but as the NS3 protease cleaves the peptide the products are released from RET quenching and the fluorescence of the donor becomes apparent. The assay reagent was made as follows: 5X cell Luciferase cell culture lysis reagent from Promega (#E153A) diluted to 1X with dH2O, NaCl added to 150 mM final, the FRET peptide diluted to 20 µM final from a 2 mM stock.
To prepare plates, HCV replicon cells, with or without a Renilla luciferase reporter gene, were trypsinized and placed into each well of a 96-well plate with titrated test compounds added in columns 3 through 12; columns 1 and 2 contained a control compound (HCV protease inhibitor), and the bottom row contained cells without compound. The plates were then placed in a CO2 incubator at 37 °C.
Assays. Subsequent to addition of the test compounds described above (FRET Assay Preparation), at various times the plate was removed and Alamar blue solution (Trek Diagnostics, #00-100) was added per well as a measure of cellular toxicity. After reading in a Cytoflour 4000 instrument (PE Biosystems), plates were rinsed with PBS and then used for FRET assay by the addition of 30 ul of the FRET peptide assay reagent described above (FRET Assay Preparation) per well. The plate was then placed into the Cytoflour 4000 instrument which had been set to 340 excite/490 emission, automatic mode for 20 cycles and the plate read in a kinetic mode. Typically, the signal to noise using an endpoint analysis after the reads was at least three-fold. Alternatively, after Alamar blue reading, plates were rinsed with PBS, 50 ul of DMEM (high glucose) without phenol red was added and plates were then used for luciferase assay using the Promega Dual-Glo Luciferase Assay System.
Compound analysis was determined by quantification of the relative HCV replicon inhibition and the relative cytotoxicity values. To calculate cytoxicity values, the average Alamar Blue fluorescence signals from the control wells were set as 100% non-toxic. The individual signals in each of the compound test wells were then divided by the average control signal and multiplied by 100% to determine […]. To calculate the HCV replicon inhibition values, an average background value was obtained from the two wells containing the highest amount of HCV protease inhibitor at the end of the assay period. These numbers were similar to those obtained from naïve Huh-7 cells.
The background numbers were then subtracted from the average signal obtained from the control wells and this number was used as 100% activity. The individual signals in each of the compound test wells were then divided by the averaged control values after background subtraction and multiplied by 100% to determine percent activity. EC50 values for a protease inhibitor titration were calculated as the concentration which caused a 50% reduction in FRET or luciferase activity. The two numbers generated for the compound plate, percent cytoxicity and percent activity were used to determine compounds of interest for further analysis.

[1] = HCV replicon cells, FRET or luciferase activity, read-out: EC50

T1 sequence (Q9WMX2 2420-2992): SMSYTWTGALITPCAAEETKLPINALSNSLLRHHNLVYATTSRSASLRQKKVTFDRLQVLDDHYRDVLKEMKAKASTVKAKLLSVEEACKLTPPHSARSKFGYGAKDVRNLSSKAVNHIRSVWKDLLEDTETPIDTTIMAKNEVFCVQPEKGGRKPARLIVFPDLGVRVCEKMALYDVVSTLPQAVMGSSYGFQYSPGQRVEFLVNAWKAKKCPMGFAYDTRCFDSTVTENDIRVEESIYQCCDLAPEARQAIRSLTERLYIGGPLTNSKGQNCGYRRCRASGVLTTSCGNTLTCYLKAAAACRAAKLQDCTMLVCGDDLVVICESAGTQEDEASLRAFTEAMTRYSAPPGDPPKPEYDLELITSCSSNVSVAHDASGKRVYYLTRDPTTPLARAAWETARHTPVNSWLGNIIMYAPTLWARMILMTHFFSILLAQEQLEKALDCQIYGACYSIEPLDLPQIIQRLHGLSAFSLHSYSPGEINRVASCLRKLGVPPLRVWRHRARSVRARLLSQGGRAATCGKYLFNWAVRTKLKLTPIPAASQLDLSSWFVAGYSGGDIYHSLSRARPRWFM

Structure (SMILES) | IC50 (HCV NS5B) | EC50 (HCV replicon; [1]) | EC50 (HCV replicon)
COc1ccc2c(c1)C=C(c1c(C(=O)N3CCOCC3)c(C(C)C)nn1C)Cn1c-2c(C2CCCCC2)c2ccc(C(=O)NS(=O)(=O)C(C)C)cc21 | 1 to 500 nM | 1 to 500 nM | 
COc1ccc2c(c1)C=C(c1c(C(=O)N3C[C@@H](C)O[C@@H](C)C3)c(C(C)C)nn1C)Cn1c-2c(C2CCCCC2)c2ccc(C(=O)NS(=O)(=O)C(C)C)cc21 | 1 to 500 nM | 1 to 500 nM | 
COc1ccc2c(c1)C=C(c1c(C(=O)N3CCN(C)CC3)c(C(C)C)nn1C)Cn1c-2c(C2CCCCC2)c2ccc(C(=O)NS(=O)(=O)C(C)C)cc21 | 1 to 500 nM | 1 to 500 nM | 
COc1ccc2c(c1)C=C(c1c(C(=O)N3C[C@@H](C)N(C)[C@@H](C)C3)c(C(C)C)nn1C)Cn1c-2c(C2CCCCC2)c2ccc(C(=O)NS(=O)(=O)C(C)C)cc21 | 1 to 500 nM | 1 to 500 nM | 
CCn1nc(C)c(C2=Cc3cc(OC)ccc3-c3c(C4CCCCC4)c4ccc(C(=O)NS(=O)(=O)C(C)C)cc4n3C2)c1C(=O)N1CCOCC1 | 1 to 500 nM | 1 to 500 nM | 
CCn1nc(C)c(C(=O)N2C[C@@H](C)O[C@@H](C)C2)c1C1=Cc2cc(OC)ccc2-c2c(C3CCCCC3)c3ccc(C(=O)NS(=O)(=O)N(C)C)cc3n2C1 | 1 to 500 nM | 1 to 500 nM | 
CCn1nc(C)c(C(=O)N2C[C@@H](C)O[C@@H](C)C2)c1C1=Cc2cc(OC)ccc2-c2c(C3CCCCC3)c3ccc(C(=O)NS(=O)(=O)C4CC4)cc3n2C1 | 1 to 500 nM | 1 to 500 nM | 
COc1ccc2c(c1)C=C(c1nn(C(C)C)c(C)c1C(=O)N1C[C@@H](C)N(C)[C@@H](C)C1)Cn1c-2c(C2CCCCC2)c2ccc(C(=O)NS(=O)(=O)C(C)C)cc21 | 1 to 500 nM | 1 to 500 nM | 
CCN1CC2CC1CN2C(=O)c1c(C)nn(CC)c1C1=Cc2cc(OC)ccc2-c2c(C3CCCCC3)c3ccc(C(=O)NS(=O)(=O)C(C)C)cc3n2C1 (stereo not drawn) | 1 to 500 nM |  | 1 to 500 nM
CCn1nc(C)c(C(=O)N2CCOCC2)c1C1=Cc2cc(OC)ccc2-c2c(C3CCCCC3)c3ccc(C(=O)NS(=O)(=O)C(C)C)cc3n2C1 | 1 to 500 nM | 1 to 500 nM | 
COc1ccc2c(c1)C=C(c1c(C(=O)N3C[C@@H](C)O[C@@H](C)C3)nnn1C(C)C)Cn1c-2c(C2CCCCC2)c2ccc(C(=O)NS(=O)(=O)C(C)C)cc21 | 1 to 500 nM | 1 to 500 nM | 
COc1ccc2c(c1)C=C(c1c(C(=O)N3C[C@@H](C)N(C)[C@@H](C)C3)nnn1C(C)C)Cn1c-2c(C2CCCCC2)c2ccc(C(=O)NS(=O)(=O)C(C)C)cc21 | 1 to 500 nM | 1 to 500 nM | 
COc1ccc2c(c1)C=C(c1c(C(=O)N3C[C@@H](C)O[C@@H](C)C3)ncn1C(C)C)Cn1c-2c(C2CCCCC2)c2ccc(C(=O)NS(=O)(=O)C(C)C)cc21 | 1 to 500 nM | 1 to 500 nM | 
COc1ccc2c(c1)C=C(c1c(C(=O)N3CCOCC3)ncn1C(C)C)Cn1c-2c(C2CCCCC2)c2ccc(C(=O)NS(=O)(=O)C(C)C)cc21 | 1 to 500 nM | 1 to 500 nM | 
COc1ccc2c(c1)C=C(c1c(C(=O)N3C[C@@H](C)N(C)[C@@H](C)C3)ncn1C(C)C)Cn1c-2c(C2CCCCC2)c2ccc(C(=O)NS(=O)(=O)C(C)C)cc21 | 1 to 500 nM | 1 to 500 nM | 
COc1ccc2c(c1)C=C(c1ncn(C(C)C)c1C(=O)N1C[C@@H](C)O[C@@H](C)C1)Cn1c-2c(C2CCCCC2)c2ccc(C(=O)NS(=O)(=O)N(C)C)cc21 | 1 to 500 nM | 1 to 500 nM | 
COc1ccc2c(c1)C=C(c1ncn(C(C)C)c1C(=O)N1CCOCC1)Cn1c-2c(C2CCCCC2)c2ccc(C(=O)NS(=O)(=O)N(C)C)cc21 | 1 to 500 nM | 1 to 500 nM | 
COc1ccc2c(c1)C=C(c1c(C(=O)N3C[C@@H](C)N(C)[C@@H](C)C3)nnn1C(C)C)Cn1c-2c(C2CCCCC2)c2ccc(C(=O)NS(=O)(=O)N(C)C)cc21 | 1 to 500 nM | 1 to 500 nM | 
COc1ccc2c(c1)C=C(c1c(C(=O)N3C[C@@H](C)O[C@@H](C)C3)nnn1C(C)C)Cn1c-2c(C2CCCCC2)c2ccc(C(=O)NS(=O)(=O)N(C)C)cc21 | 1 to 500 nM | 1 to 500 nM | 
COc1ccc2c(c1)C=C(c1c(C(=O)N3CCOCC3)nnn1C(C)C)Cn1c-2c(C2CCCCC2)c2ccc(C(=O)NS(=O)(=O)N(C)C)cc21 | 1 to 500 nM | 1 to 500 nM | 
COc1ccc2c(c1)C=C(c1c(C(=O)N3CCN(C)CC(F)(F)C3)nnn1C(C)C)Cn1c-2c(C2CCCCC2)c2ccc(C(=O)NS(=O)(=O)N(C)C)cc21 | 1 to 500 nM | 1 to 500 nM | 

From patent publication EP2396329B1, “COMPOUNDS FOR THE TREATMENT OF HEPATITIS C” (priority 2009, dated 2010)
